Results taken from patent US6489351B1, “Condensed 4,5,6,7-tetrahydrobenzo[C]thiophenes as enhancer for cell differentation induction factor action” (Takeda Chemical Industries, Ltd., priority 1996, dated 2002).

Legend:
[1] = system: Mouse-derived osteoblast strain MC3T3-E1; test: Alkaline phosphatase production induction capability in mouse osteoblast strain; type: cell-based; details: compound 10^−5 M, 72 hours, mean±S.E.; for Alkaline Phosphate Activity (A405 × 1,000), BMP Added (3 ng/ml): 3 ng/ml BMP-4/7 heterodimer, control 397 ± 30 (Experiment 4), 420 ± 1 (Experiment 5); for Alkaline Phosphate Activity (A405 × 1,000), BMP Not Added: no BMP, control 135 ± 2 (Experiment 4), 141 ± 8 (Experiment 5)
Method: Mouse-derived osteoblast strain MC3T3-E1 in α-MEM containing 10% fetal calf serum (FCS) was seeded to 96-well plates (8,000 cells/well); two days later, the sample, previously diluted with a medium containing or not containing 3 ng/ml BMP-4/7 of heterodimer (described in EP-A-0626451) to each concentration shown in Table 2, was added to the cells reaching a confluent state, followed by cultivation for 72 hours. After each plate was once washed with saline, substrate solution was added, followed by incubation at room temperature for 15 minutes. The reaction was stopped by 0.05 N sodium hydroxide, and the absorbance at 405 nm was determined. The values obtained are given in mean±S.E. in Table 2. The data were statistically analyzed by Student's t-test.

[2] = system: stromal cells prepared from the femoral marrow of a normal rat; test: Osteogenesis-promoting action: alkaline phosphatase activity in rat femoral marrow stromal cells; type: cell-based; details: mean±SE
Method: Using stromal cells prepared from the femoral marrow of a normal rat, alkaline phosphatase activity was determined as an index of osteogenesis. Specifically, stromal cells, prepared from the femoral marrow of a 7-week-old male Sprague-Dawley rat by the method of Maniatopoulos et al. [Cell Tissue Research, Vol. 254, p. 317 (1988)], were cultured in an α-MEM (minimum essential medium) solution containing both dexamethasone (10^−7 M) and β-glycerophosphoric acid (10^−2 M) to obtain calcified osteoid tissue. […] After washing with phosphate buffer, the cells were homogenized with 0.2% Nonidet P-40 and centrifuged at 3,000 rpm for 10 minutes. The resulting supernatant was assayed for alkaline phosphatase activity by the method of Lowry et al. [Journal of Biological Chemistry, Vol. 207, p. 19 (1954)]. The values obtained are given in mean±SE in Table 1. The data-were statistically analyzed by Student's t-test.

[3] = compound 10^−5 M, control 694.9 ± 22.7 (Experiment 1), 608.4 ± 20.9 (Experiment 2)
[4] = compound 10^−6 M, Experiment 3, control 63.1 ± 5.0

Compound `CCOP(=O)(Cc1ccc(NC(=O)c2cc3c(s2)-c2c(SC)sc(C(=O)Nc4ccc(CP(=O)(OCC)OCC)cc4)c2CC3)cc1)OCC` has a melting point of 262 to 263 °C.
With `CCOC(=O)c1sc(SC)c2c1CCc1sc(C)nc1-2` [Example 1, ethyl 4,5-dihydro-2-methyl-8-methylthiothieno[3,4-e]benzothiazole-6-carboxylate] the melting point was 143 to 144 °C.
Compound `CCOC(=O)c1sc(SC)c2c1CCc1sc(-c3ccccc3)nc1-2` [Example 2, ethyl 4,5-dihydro-8-methylthio-2-phenylthieno[3,4-e]benzothiazole-6-carboxylate] has a melting point of 153 to 154 °C.
`CCCSc1sc(C(=O)OCC)c2c1-c1nc(-c3ccccc3)sc1CC2` [Example 3, ethyl 4,5-dihydro-2-phenyl-8-propylthiothieno[3,4-e]benzothiazole-6-carboxylate] showed a melting point of 125 to 126 °C.
In the case of `CCOC(=O)c1oc(SC)c2c1CCc1sc(-c3ccccc3)nc1-2` [Example 4, ethyl 4,5-dihydro-8-methylthio-2-phenylfuro[3,4-e]benzothiazole-6-carboxylate], the melting point is reported as 170 to 171 °C.
With `CCOC(=O)c1sc(SC)c2c1CCC(NC(C)=O)C2=O` (stereo not shown) [Example 11, ethyl 5-acetylamino-4,5,6,7-tetrahydro-3-methylthio-4-oxobenzo[c]thiophene-1-carboxylate] the melting point was 215 to 216 °C.
In the case of `CCOC(=O)c1sc(SC(C)C)c2c1CCC(NC(C)=O)C2=O` (stereo not shown) [Example 12, ethyl 5-acetylamino-4,5,6,7-tetrahydro-3-isopropylthio-4-oxobenzo[c]thiophene-1-carboxylate], the melting point is reported as 170 to 171 °C.
`CCCSc1sc(C(=O)OCC)c2c1C(=O)C(NC(=O)CC)CC2` (stereo not shown) [Example 13, ethyl 4,5,6,7-tetrahydro-4-oxo-5-propionylamino-3-propylthiobenzo[c]thiophene-1-carboxylate] showed a melting point of 191 to 192 °C.
Work on `CCOC(=O)c1sc(SC)c2c1CCc1nc(C)oc1-2` [Example 17, ethyl 4,5-dihydro-2-methyl-8-methylthiothieno[3,4-g]benzoxazole-6-carboxylate] yielded a melting point of 131 to 132 °C.
In the case of `CCOC(=O)c1sc(SC(C)C)c2c1CCc1nc(C)oc1-2` [Example 18, ethyl 4,5-dihydro-8-isopropylthio-2-methylthieno[3,4-g]benzoxazole-6-carboxylate], the melting point is reported as 62 to 63 °C.
`CCOC(=O)c1sc(SC)c2c1CCc1nc(-c3ccccc3)[nH]c1-2` [Example 21, ethyl 4,5-dihydro-8-methylthio-2-phenylthieno[3,4-e]benzimidazole-6-carboxylate] showed a melting point of 218 to 219 °C.
For `CSc1sc(C(=O)O)c2c1-c1nc(C)sc1CC2` [Example 22, 4,5-dihydro-2-methyl-8-methylthiothieno[3,4-e]benzothiazole-6-carboxylic acid], the melting point was 273 to 274 °C.
With `CSc1sc(C(=O)O)c2c1-c1nc(-c3ccccc3)sc1CC2` [Example 23, 4,5-dihydro-8-methylthio-2-phenylthieno[3,4-e]benzothiazole-6-carboxylic acid] the melting point was 255 to 256 °C (dec.).
In the case of `CCCSc1sc(C(=O)O)c2c1-c1nc(-c3ccccc3)sc1CC2` [Example 24, 4,5-dihydro-2-phenyl-8-propylthiothieno[3,4-e]benzothiazole-6-carboxylic acid], the melting point is reported as 236 to 237 °C (dec.).
In the case of `Cc1nc2c(o1)-c1c(SC(C)C)sc(C(=O)O)c1CC2` [Example 33, 4,5-dihydro-8-isopropylthio-2-methylthieno[3,4-g]benzoxazole-6-carboxylic acid], the melting point is reported as 277 to 278 °C.
In the case of `CSc1sc(C(N)=O)c2c1-c1nc(C)sc1CC2` [Example 36, 4,5-dihydro-2-methyl-8-methylthiothieno[3,4-e]benzothiazole-6-carboxamide], the “Alkaline Phosphate Activity (A405 × 1,000), BMP Added (3 ng/ml)” value [1] is reported as 618 ± 13 A405 × 1,000, the “Alkaline Phosphate Activity (A405 × 1,000), BMP Not Added” value [1] is reported as 181 ± 6 A405 × 1,000 and the melting point is reported as 269 to 270 °C.
Work on `CCCSc1sc(C(N)=O)c2c1-c1nc(-c3ccccc3)sc1CC2` [Example 37, 4,5-dihydro-2-phenyl-8-propylthiothieno[3,4-e]benzothiazole-6-carboxamide] yielded a melting point of 203 to 204 °C.
For `CSc1sc(C(N)=O)c2c1-c1oc(C)nc1CC2` [Example 46], the “Alkaline Phosphatase Activity (nmol p-nitrophenol/min/well)” value [2, 3] was 1,916.8 ± 26.3 nmol p-nitrophenol/min/well.
For `Cc1nc2c(o1)-c1c(SC(C)C)sc(C(N)=O)c1CC2` [Example 47, 4,5-dihydro-8-isopropylthio-2-methylthieno[3,4-g]benzoxazole-6-carboxamide], the “Alkaline Phosphate Activity (A405 × 1,000), BMP Added (3 ng/ml)” value [1] was 886 ± 35 A405 × 1,000, the “Alkaline Phosphate Activity (A405 × 1,000), BMP Not Added” value [1] was 202 ± 21 A405 × 1,000 and the melting point was 230 to 231 °C.
In the case of `CCNC(=O)c1sc(SC)c2c1CCc1sc(-c3ccccc3)nc1-2` [Example 50, N-ethyl-4,5-dihydro-8-methylthio-2-phenylthieno[3,4-e]benzothiazole-6-carboxamide], the “Alkaline Phosphatase Activity (nmol p-nitrophenol/min/well)” value [2, 3] is reported as 1,463 ± 33.4 nmol p-nitrophenol/min/well and the melting point is reported as 211 to 212 °C.
`CCNC(=O)c1sc(SC)c2c1CCc1nc(C)oc1-2` [Example 55] showed a melting point of 175 to 176 °C.
`CSc1sc(C(N)=O)c2c1-c1[nH]c(-c3ccccc3)nc1CC2` [Example 68, 4,5-dihydro-8-methylthio-2-phenylthieno[3,4-e]benzimidazole-6-carboxamide] showed a melting point of 206 to 207 °C.
`CCOC(=O)c1sc(SC)c2c1CCC(C=O)=C2Cl` [Example 69, ethyl 4-chloro-5-formyl-6,7-dihydro-3-methylthiobenzo[c]thiophene-1-carboxylate] showed a melting point of 79 to 80 °C.
`CCOC(=O)CSC1=C(C=O)CCc2c(C(=O)OCC)sc(SC)c21` [Example 70, ethyl 4-ethoxycarbonylmethylthio-5-formyl-6,7-dihydro-3-methylthiobenzo[c]thiophene-1-carboxylate] showed a melting point of 102 to 103 °C.
`CCOC(=O)c1cc2c(s1)-c1c(SC)sc(C(=O)OCC)c1CC2` [Example 71, diethyl 4,5-dihydro-8-methylthiobenzo[2,1-c:3,4-b′]dithiophene-2,6-dicarboxylate] gave a melting point of 107 to 108 °C.
`CSc1sc(C(=O)O)c2c1-c1sc(-c3ccccc3)cc1CC2` [Example 75, 4,5-dihydro-8-methylthio-2-phenylbenzo[2,1-c:3,4-b′]dithiophene-6-carboxylic acid] showed a melting point of 215 to 217 °C.
For `CSc1sc(C(N)=O)c2c1-c1sc(-c3ccccc3)cc1CC2` [Example 76, 4,5-dihydro-8-methylthio-2-phenylbenzo[2,1-c:3,4-b′]dithiophene-6-carboxamide], the melting point was 192 to 193 °C.
For `CSc1sc(C(=O)NCc2ccc3c(c2)OCO3)c2c1-c1nc(-c3ccccc3)sc1CC2` [Example 90, N-(3,4-methylenedioxybenzyl)-4,5-dihydro-8-methylthio-2-phenylthieno[3,4-e]benzothiazole-6-carboxamide], the “Alkaline Phosphatase Activity (nmol p-nitrophenol/min/well)” value [2, 4] was 102.9 ± 7.3 nmol p-nitrophenol/min/well and the melting point was 236 to 237 °C.
In the case of `CSc1sc(C(=O)NCc2ccncc2)c2c1-c1nc(-c3ccccc3)sc1CC2` [Example 91, N-(4-pyridylmethyl)-4,5-dihydro-8-methylthio-2-phenylthieno[3,4-e]benzothiazole-6-carboxamide], the “Alkaline Phosphatase Activity (nmol p-nitrophenol/min/well)” value [2, 4] is reported as 123.2 ± 5.7 nmol p-nitrophenol/min/well and the melting point is reported as 189 to 190 °C.
In the case of `CSc1sc(C(=O)Nc2cccnc2)c2c1-c1nc(-c3ccccc3)sc1CC2` [Example 92, N-(3-pyridyl)-4,5-dihydro-8-methylthio-2-phenylthieno[3,4-e]benzothiazole-6-carboxamide], the “Alkaline Phosphatase Activity (nmol p-nitrophenol/min/well)” value [2, 4] is reported as 111.4 ± 2.1 nmol p-nitrophenol/min/well and the melting point is reported as 230 to 231 °C.
For `CON(C)C(=O)c1sc(SC)c2c1CCc1sc(-c3ccccc3)nc1-2` [Example 93, N-methoxy-N-methyl-4,5-dihydro-8-methylthio-2-phenylthieno[3,4-e]benzothiazole-6-carboxamide], the “Alkaline Phosphatase Activity (nmol p-nitrophenol/min/well)” value [2, 4] was 159.9 ± 17.5 nmol p-nitrophenol/min/well and the melting point was 157 to 158 °C.
